# Assay results: PubChem BioAssay AID1259411 (Chemical Carcinogenesis Research Information System (CCRIS), 2018)
# The source made the active and inactive calls. The rule behind the calls is not given here.
# Tested on: rodent carcinogenicity bioassays, tumor incidence
# Experiment: CCRIS carcinogenicity studies
# Excerpt: The CCRIS database contains chemical records with carcinogenicity, mutagenicity, tumor promotion, and tumor inhibition test results. It was developed by the National Cancer Institute (NCI). Data are derived from studies cited in primary journals, current awareness tools, NCI reports, and other sources. Test results have been reviewed by experts in carcinogenesis and mutagenesis.
# CCRIS provides historical information from the years 1985 - 2011. It is no longer updated.
# This is an archive assay for CCRIS carcinogenicity studies.
structure (smiles),measurement,setting,value
CC(CN1CC(=O)NC(=O)C1)N1CC(=O)NC(=O)C1 (stereo unspecified),carcinogen call,"Species: MOUSE, Strain/Sex: B6C3F1/FEMALE, Route: INTRAPERITONEAL, Dose: 0, 40, 80 MG/KG IN BUFFERED SALINE 3/WK FOR 52 WK, Dose: 0, 40, 80 MG/KG IN BUFFERED SALINE 3/WK FOR 52 WK, Tumor Site: Type of Lesion: LYMPHATIC SYSTEM: HISTIOCYTIC LYMPHOMA",active; positive
same,carcinogen call,"Species: MOUSE, Strain/Sex: B6C3F1/MALE, Route: INTRAPERITONEAL, Dose: 0, 40, 80 MG/KG IN BUFFERED SALINE 3/WK FOR 52 WK, Dose: 0, 40, 80 MG/KG IN BUFFERED SALINE 3/WK FOR 52 WK",inactive; negative
same,carcinogen call,"Species: RAT, Strain/Sex: SPRAGUE-DAWLEY/FEMALE, Route: INTRAPERITONEAL, Dose: 0, 48, 96 MG/KG IN BUFFERED SALINE 3/WK FOR 52 WK, Dose: 0, 48, 96 MG/KG IN BUFFERED SALINE 3/WK FOR 52 WK, Tumor Site: Type of Lesion: UTERUS: ADENOCARCINOMA (NOS)",active; positive
same,carcinogen call,"Species: RAT, Strain/Sex: SPRAGUE-DAWLEY/MALE, Route: INTRAPERITONEAL, Dose: 0, 48, 96 MG/KG IN BUFFERED SALINE 3/WK FOR 52 WK, Dose: 0, 48, 96 MG/KG IN BUFFERED SALINE 3/WK FOR 52 WK",inactive; negative
O=C(O)c1cc2ccccc2c(N=Nc2ccc3ccccc3c2S(=O)(=O)O)c1O,carcinogen call,"Species: MOUSE, Strain/Sex: SWISS-WEBSTER/FEMALE, Route: DERMAL, Dose: 0, 1% IN 0.1 ML 0.1% SODIUM LAURYL SULFATE 1/WK FOR 18 MO (STUDY DURATION: 18 MO)",inactive; negative
same,carcinogen call,"Species: MOUSE, Strain/Sex: SWISS-WEBSTER/MALE, Route: DERMAL, Dose: 0, 1% IN 0.1 ML 0.1% SODIUM LAURYL SULFATE 1/WK FOR 18 MO (STUDY DURATION: 18 MO)",inactive; negative
O=C1c2ccccc2-c2ccc([N+](=O)[O-])c3cccc1c23,carcinogen call,"Species: RAT, Strain/Sex: F344/FEMALE, Route: INTRATRACHEAL, Dose: 0, 1.5 MG TOTAL, 2.5 MG TOTAL OVER 18 MO (STUDY DURATION: 18 MO), Dose: 0, 1.5 MG TOTAL, 2.5 MG TOTAL OVER 18 MO (STUDY DURATION: 18 MO), Tumor Site: Type of Lesion: LUNG: CARCINOMA",active; positive (at higher dosage and longer duration)
C[C@H]1[C@H](c2ccc(Cl)cc2)SC(=O)N1C(=O)NC1CCCCC1,carcinogen call,"Species: Rat, Strain/Sex: Fischer 344/Female (70/Group), Route: Oral, Dose: 0, 60, 430, 3000 ppm in diet for 24 mo, study duration 24 mo, Dose: 0, 60, 430, 3000 ppm in diet for 24 mo, study duration 24 mo",inactive; negative
same,carcinogen call,"Species: Rat, Strain/Sex: Fischer 344/Male (70/Group), Route: Oral, Dose: 0, 60, 430, 3000 ppm in diet for 24 mo, study duration 24 mo, Dose: 0, 60, 430, 3000 ppm in diet for 24 mo, study duration 24 mo, Tumor Site: Type of Lesion: Mammary gland: fibroadenoma (0, 1, 2, 6)",active; positive. (department of pesticides regulation reviewer describes as possible ad
O=S(=O)([O-])[O-].[Cd+2],carcinogen call,"Species: HAMSTER, Strain/Sex: SYRIAN/FEMALE, Route: INHALATION, Dose: 0, 30 UG/M3 19 HR/D 5 D/WK FOR 65 WK FOR A TOTAL CADMIUM DOSE OF 0, 180 MG/M3 (STUDY DURATION: 77 WK), Dose: 0, 30 UG/M3 19 HR/D 5 D/WK FOR 65 WK FOR A TOTAL CADMIUM DOSE OF 0, 180 MG/M3 (STUDY DURATION: 77 WK)",inactive; negative
same,carcinogen call,"Species: HAMSTER, Strain/Sex: SYRIAN/MALE, Route: INHALATION, Dose: 0, 30 UG/M3 19 HR/D 5 D/WK FOR 65 WK FOR A TOTAL CADMIUM DOSE OF 0, 180 MG/M3 (STUDY DURATION: 113 WK), Dose: 0, 30 UG/M3 19 HR/D 5 D/WK FOR 65 WK FOR A TOTAL CADMIUM DOSE OF 0, 180 MG/M3 (STUDY DURATION: 113 WK)",inactive; negative
same,carcinogen call,"Species: RAT, Strain/Sex: ALBINO/MALE, Route: SUBCUTANEOUS, Dose: 0.5 MG IN WATER 1/WK FOR 10 WK, Tumor Site: Type of Lesion: INJECTION SITE: SARCOMA, TESTES: INTERSTITIAL CELL TUMOR",active; positive
same,carcinogen call,"Species: RAT, Strain/Sex: CB/MALE, Route: SUBCUTANEOUS, Dose: 0.5 MG, 1/WK FOR 10 WK, Tumor Site: Type of Lesion: INJECTION SITE: SARCOMA, TESTES: INTERSTITIAL CELL TUMOR",active; positive
same,carcinogen call,"Species: RAT, Strain/Sex: WISTAR/FEMALE, Route: INHALATION, Dose: 0, 90 UG/M3 22 HR/D 7 D WK FOR 18 MO (STUDY DURATION: 18 MO), Tumor Site: Type of Lesion: LUNG: ALVEOLAR/BRONCHIOLAR ADENOMA, ALVEOLAR/BRONCHIOLAR ADENOCARCINOMA, SQUAMOUS CELL CARCINOMA",active; positive
same,carcinogen call,"Species: RAT, Strain/Sex: WISTAR/FEMALE, Route: INHALATION, Dose: 0, 90 UG/M3 22 HR/D 7 D/WK FOR 18 MO (STUDY DURATION: 29 MO), Tumor Site: Type of Lesion: LUNG: ALVEOLAR/BRONCHIOLAR ADENOMA, ADENOCARCINOMA, SQUAMOUS CELL CARCINOMA",active; positive
same,carcinogen call,"Species: RAT, Strain/Sex: WISTAR/FEMALE, Route: INHALATION, Dose: 0, 90 UG/M3 22 HR/D 7 D/WK FOR 18 MO (STUDY DURATION: 29 MO), Tumor Site: Type of Lesion: LUNG: TUMOR",active; positive
same,carcinogen call,"Species: RAT, Strain/Sex: WISTAR/FEMALE, Route: INHALATION, Dose: 0, 90 UG/M3 AEROSOL 22 HR/D 7 D/WK FOR 18 MO (STUDY DURATION: 29 MO), Tumor Site: Type of Lesion: LUNG: ALVEOLAR/BRONCHIOLAR ADENOMA, ADENOCARCINOMA, SQUAMOUS CELL CARCINOMA",active; positive
same,carcinogen call,"Species: RAT, Strain/Sex: WISTAR/MALE, Route: INHALATION, Dose: 0, 90 UG/M3 22 HR/D 7 D/WK FOR 14 MO (STUDY DURATION: 31 MO), Tumor Site: Type of Lesion: LUNG: ALVEOLAR/BRONCHIOLAR ADENOMA, ADENOCARCINOMA",active; positive
same,carcinogen call,"Species: RAT, Strain/Sex: WISTAR/MALE, Route: INHALATION, Dose: 0, 90 UG/M3 22 HR/D 7 D/WK FOR 14 MO (STUDY DURATION: 31 MO), Tumor Site: Type of Lesion: LUNG: TUMOR",active; positive
same,carcinogen call,"Species: RAT, Strain/Sex: WISTAR/MALE, Route: INHALATION, Dose: 0, 90 UG/M3 22 HR/D 7 D/WK FOR 135 MO (STUDY DURATION: 13.5 MO), Tumor Site: Type of Lesion: LUNG: ALVEOLAR/BRONCHIOLAR ADENOMA, ALVEOLAR/BRONCHIOLAR ADENOCARCINOMA, SQUAMOUS CELL CARCINOMA",active; positive
same,carcinogen call,"Species: RAT, Strain/Sex: WISTAR/MALE, Route: INHALATION, Dose: 0, 90 UG/M3 AEROSOL 22 HR/D 7 D/WK FOR 14 MO (STUDY DURATION: 31 MO), Tumor Site: Type of Lesion: LUNG: ALVEOLAR/BRONCHIOLAR ADENOMA, ADENOCARCINOMA",active; positive
Clc1cccc(-c2ccc(Cl)c(Cl)c2Cl)c1Cl,carcinogen call,"Species: MOUSE, Strain/Sex: BALB/MALE, Route: ORAL, Dose: 300 MG/KG IN DIET FOR 6 OR 11 MO, Tumor Site: Type of Lesion: LIVER: HEPATOMA",active; positive
same,carcinogen call,"Species: RAT, Strain/Sex: F344/FEMALE, Route: ORAL, Dose: 0, 25, 50, 100 PPM IN DIET FOR 104-105 WK (STUDY DURATION: 104-105 WK), Dose: 0, 25, 50, 100 PPM IN DIET FOR 104-105 WK (STUDY DURATION: 104-105 WK), Tumor Site: Type of Lesion: LIVER: ADENOMA, STOMACH: ADENOMA, ADENOCARCINOMA",equivocal
same,carcinogen call,"Species: RAT, Strain/Sex: F344/MALE, Route: ORAL, Dose: 0, 25, 50, 100 PPM IN DIET FOR 104-105 WK (STUDY DURATION: 104-105 WK), Dose: 0, 25, 50, 100 PPM IN DIET FOR 104-105 WK (STUDY DURATION: 104-105 WK), Tumor Site: Type of Lesion: LIVER: HEPATOCELLULAR ADENOMA, HEPATOCELLULAR CARCINOMA, GASTROINTESTINAL SYSTEM: ADENOCARCINOMA OR CARCINOMA",equivocal
same,carcinogen call,"Species: RAT, Strain/Sex: SPRAGUE-DAWLEY/FEMALE, Route: ORAL, Dose: 0, 25, 50, 100 PPM IN DIET FOR THE DURATION OF STUDY (STUDY DURATION: 24 MO), Dose: 0, 25, 50, 100 PPM IN DIET FOR THE DURATION OF STUDY (STUDY DURATION: 24 MO), Tumor Site: Type of Lesion: LIVER: TUMOR",active; positive
same,carcinogen call,"Species: RAT, Strain/Sex: SPRAGUE-DAWLEY/MALE, Route: ORAL, Dose: 0, 25, 50, 100 PPM IN DIET FOR THE DURATION OF STUDY (STUDY DURATION: 24 MO), Dose: 0, 25, 50, 100 PPM IN DIET FOR THE DURATION OF STUDY (STUDY DURATION: 24 MO), Tumor Site: Type of Lesion: THYROID GLAND: ADENOMA OR CARCINOMA",active; positive
